Among the data in patent US10206394B2, “Herbicidal compounds” (Syngenta Participations AG, priority 2014, dated 2019) are pest or weed control values, retold here.

Holding throughout (test): Glasshouse assay for herbicidal activity (pre- and post-emergence), percentage phytotoxicity
Type in all cases: in vivo

Experiment [1] relates to Alopecurus myosuroides (ALOMY). Conditions: Alopecurus myosuroides. The procedure, abridged: (§1)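 Visual phytotoxicity score, 0% = undamaged to 100% = total kill, read 20 days after treatment for PRE and 15 days for POST. Pots of standard soil; treatment at day 1 (PRE) or roughly day 12 (POST). Glasshouse: 16 h photoperiod, 65% RH, 24/18 or 20/16 °C by climate type.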
The test system of another experiment is Lolium perenne (LOLPE). Conditions: Lolium perenne. A digest of the protocol:
as §1

Another experiment has as its system Avena fatua (AVEFA). Conditions: Avena fatua. The procedure, abridged:
as §1

The subject of experiment [2] is Echinochloa crus-galli (ECHCG). Conditions: Echinochloa crus-galli. A digest of the protocol: as §1
The mark [3] stands for this setting: post-emergence, 360 h, Rate 250 g/ha, post-emergence, visual assessment 15 DAA, 100%=total damage, 0%=no damage, read-out: Post-emergence herbicidal activity (percentage phytotoxicity) ALOMY POST.
The mark [4] stands for this setting: pre-emergence, 480 h, Rate 250 g/ha, pre-emergence, visual assessment 20 DAA, 100%=total damage, 0%=no damage, read-out: Pre-emergence herbicidal activity (percentage phytotoxicity) ALOMY PRE.
Setting [5] is: post-emergence, 360 h, Rate 250 g/ha, post-emergence, visual assessment 15 DAA, 100%=total damage, 0%=no damage, read-out: Post-emergence herbicidal activity (percentage phytotoxicity) LOLPE POST.
The mark [6] stands for this setting: pre-emergence, 480 h, Rate 250 g/ha, pre-emergence, visual assessment 20 DAA, 100%=total damage, 0%=no damage, read-out: Pre-emergence herbicidal activity (percentage phytotoxicity) LOLPE PRE.
The mark [7] stands for this setting: post-emergence, 360 h, Rate 250 g/ha, post-emergence, visual assessment 15 DAA, 100%=total damage, 0%=no damage, read-out: Post-emergence herbicidal activity (percentage phytotoxicity) AVEFA POST.
Setting [8] is: pre-emergence, 480 h, Rate 250 g/ha, pre-emergence, visual assessment 20 DAA, 100%=total damage, 0%=no damage, read-out: Pre-emergence herbicidal activity (percentage phytotoxicity) AVEFA PRE.
[9] abbreviates: post-emergence, 360 h, Rate 250 g/ha, post-emergence, visual assessment 15 DAA, 100%=total damage, 0%=no damage, read-out: Post-emergence herbicidal activity (percentage phytotoxicity) ECHCG POST.
[10] abbreviates: pre-emergence, 480 h, Rate 250 g/ha, pre-emergence, visual assessment 20 DAA, 100%=total damage, 0%=no damage, read-out: Pre-emergence herbicidal activity (percentage phytotoxicity) ECHCG PRE.
[11] abbreviates: post-emergence, 360 h, 250 g/ha, post-emergence, 15 DAA, visual assessment (100%=total damage, 0%=no damage), read-out: Post-emergence herbicidal activity (percentage phytotoxicity) ALOMY POST.
Setting [12] is: pre-emergence, 480 h, 250 g/ha, pre-emergence, 20 DAA, visual assessment (100%=total damage, 0%=no damage), read-out: Pre-emergence herbicidal activity (percentage phytotoxicity) ALOMY PRE.
[13] abbreviates: post-emergence, 360 h, 250 g/ha, post-emergence, 15 DAA, visual assessment (100%=total damage, 0%=no damage), read-out: Post-emergence herbicidal activity (percentage phytotoxicity) LOLPE POST.
Where [14] appears, read: pre-emergence, 480 h, 250 g/ha, pre-emergence, 20 DAA, visual assessment (100%=total damage, 0%=no damage), read-out: Pre-emergence herbicidal activity (percentage phytotoxicity) LOLPE PRE.
The mark [15] stands for this setting: post-emergence, 360 h, 250 g/ha, post-emergence, 15 DAA, visual assessment (100%=total damage, 0%=no damage), read-out: Post-emergence herbicidal activity (percentage phytotoxicity) AVEFA POST.
[16] abbreviates: pre-emergence, 480 h, 250 g/ha, pre-emergence, 20 DAA, visual assessment (100%=total damage, 0%=no damage), read-out: Pre-emergence herbicidal activity (percentage phytotoxicity) AVEFA PRE.
[17] abbreviates: post-emergence, 360 h, 250 g/ha, post-emergence, 15 DAA, visual assessment (100%=total damage, 0%=no damage), read-out: Post-emergence herbicidal activity (percentage phytotoxicity) ECHCG POST.
Where [18] appears, read: pre-emergence, 480 h, 250 g/ha, pre-emergence, 20 DAA, visual assessment (100%=total damage, 0%=no damage), read-out: Pre-emergence herbicidal activity (percentage phytotoxicity) ECHCG PRE.
[19] abbreviates: post-emergence, 360 h, Rate 250 g/ha, post-emergence, assessed visually 15 DAA, 100%=total damage, 0%=no damage, read-out: Post-emergence herbicidal activity (percentage phytotoxicity) ALOMY POST.
Where [20] appears, read: pre-emergence, 480 h, Rate 250 g/ha, pre-emergence, assessed visually 20 DAA, 100%=total damage, 0%=no damage, read-out: Pre-emergence herbicidal activity (percentage phytotoxicity) ALOMY PRE.
Where [21] appears, read: post-emergence, 360 h, Rate 250 g/ha, post-emergence, assessed visually 15 DAA, 100%=total damage, 0%=no damage, read-out: Post-emergence herbicidal activity (percentage phytotoxicity) LOLPE POST.
Setting [22] is: pre-emergence, 480 h, Rate 250 g/ha, pre-emergence, assessed visually 20 DAA, 100%=total damage, 0%=no damage, read-out: Pre-emergence herbicidal activity (percentage phytotoxicity) LOLPE PRE.
Setting [23] is: post-emergence, 360 h, Rate 250 g/ha, post-emergence, assessed visually 15 DAA, 100%=total damage, 0%=no damage, read-out: Post-emergence herbicidal activity (percentage phytotoxicity) AVEFA POST.
The mark [24] stands for this setting: pre-emergence, 480 h, Rate 250 g/ha, pre-emergence, assessed visually 20 DAA, 100%=total damage, 0%=no damage, read-out: Pre-emergence herbicidal activity (percentage phytotoxicity) AVEFA PRE.
Where [25] appears, read: post-emergence, 360 h, Rate 250 g/ha, post-emergence, assessed visually 15 DAA, 100%=total damage, 0%=no damage, read-out: Post-emergence herbicidal activity (percentage phytotoxicity) ECHCG POST.
The mark [26] stands for this setting: pre-emergence, 480 h, Rate 250 g/ha, pre-emergence, assessed visually 20 DAA, 100%=total damage, 0%=no damage, read-out: Pre-emergence herbicidal activity (percentage phytotoxicity) ECHCG PRE.

Read-outs that look alike come from different tables or passages of the source.

For `Cc1cc(-c2ccc(F)cn2)cc(C)c1C1C(=O)CC(CC(=O)NCc2cccc(Cl)c2)C1=O` (stereo not shown) [Compound B401], the pest or weed control at 250 g/ha in experiment [1] (setting [3]) is 90%; in experiment [1] (setting [4]), 80%; with Lolium perenne (LOLPE) (setting [5]) it was 90%; in the experiment on Lolium perenne (LOLPE) (setting [6]), 90%; in the experiment with Avena fatua (AVEFA) (setting [7]), 100%; in the experiment with Avena fatua (AVEFA) (setting [8]), 70%. In addition, the results for the pest or weed control at 250 g/ha in experiment [2] (setting [9]) and in experiment [2] (setting [10]) were 100% and 80%, respectively.

Regarding `C/C=C/c1cc(C)c(C2C(=O)CC(CC(=O)N(C)C(C)(C)C)C2=O)c(C)c1` (stereo not shown) [Compound B249], the pest or weed control at 250 g/ha stood at 70% in experiment [1] (post-emergence, 360 h, POST-emergence, rate 250 g/ha, visual score 15 DAA (100%=total damage, 0%=no damage), read-out: Post-emergence herbicidal activity (percentage phytotoxicity) ALOMY POST); 80% in experiment [1] (pre-emergence, 480 h, PRE-emergence, rate 250 g/ha, visual score 20 DAA (100%=total damage, 0%=no damage), read-out: Pre-emergence herbicidal activity (percentage phytotoxicity) ALOMY PRE); 60% in the experiment on Lolium perenne (LOLPE) (post-emergence, 360 h, POST-emergence, rate 250 g/ha, visual score 15 DAA (100%=total damage, 0%=no damage), read-out: Post-emergence herbicidal activity (percentage phytotoxicity) LOLPE POST); 70% in the experiment with Lolium perenne (LOLPE) (pre-emergence, 480 h, PRE-emergence, rate 250 g/ha, visual score 20 DAA (100%=total damage, 0%=no damage), read-out: Pre-emergence herbicidal activity (percentage phytotoxicity) LOLPE PRE); 70% in the experiment on Avena fatua (AVEFA) (post-emergence, 360 h, POST-emergence, rate 250 g/ha, visual score 15 DAA (100%=total damage, 0%=no damage), read-out: Post-emergence herbicidal activity (percentage phytotoxicity) AVEFA POST); 30% in the experiment on Avena fatua (AVEFA) (pre-emergence, 480 h, PRE-emergence, rate 250 g/ha, visual score 20 DAA (100%=total damage, 0%=no damage), read-out: Pre-emergence herbicidal activity (percentage phytotoxicity) AVEFA PRE). Moreover, the pest or weed control at 250 g/ha in experiment [2] (post-emergence, 360 h, POST-emergence, rate 250 g/ha, visual score 15 DAA (100%=total damage, 0%=no damage), read-out: Post-emergence herbicidal activity (percentage phytotoxicity) ECHCG POST) came out at 80%; in experiment [2] (pre-emergence, 480 h, PRE-emergence, rate 250 g/ha, visual score 20 DAA (100%=total damage, 0%=no damage), read-out: Pre-emergence herbicidal activity (percentage phytotoxicity) ECHCG PRE), 80%.

In the case of `Cc1cc(-c2ncc(Cl)cn2)cc(C)c1C1C(=O)C[C@H](CC(=O)NC(C)(C)C)C1=O` (stereo partly shown) [Compound B50], the pest or weed control at 250 g/ha stood at 100% in experiment [1] (setting [11]); 90% in experiment [1] (setting [12]); 100% in the experiment on Lolium perenne (LOLPE) (setting [13]); 100% with Lolium perenne (LOLPE) (setting [14]); 90% with Avena fatua (AVEFA) (setting [15]); 70% in the experiment with Avena fatua (AVEFA) (setting [16]). In addition, the pest or weed control at 250 g/ha in experiment [2] (setting [17]) and in experiment [2] (setting [18]) was 100% in each case.

Regarding `Cc1cc(-c2ncc(Cl)cc2F)cc(C)c1C1C(=O)CC(CC(=O)NCc2cccc(C(F)(F)F)c2)C1=O` (stereo not shown) [Compound A120], the pest or weed control at 250 g/ha was 100% in experiment [1] (setting [19]); 80% in experiment [1] (setting [20]); 100% in the experiment with Lolium perenne (LOLPE) (setting [21]); 80% in the experiment on Lolium perenne (LOLPE) (setting [22]); 100% with Avena fatua (AVEFA) (setting [23]); 90% with Avena fatua (AVEFA) (setting [24]). Also, the pest or weed control at 250 g/ha in experiment [2] (setting [25]) and in experiment [2] (setting [26]) was 100% each time.

As to `Cc1cc(-c2ncc(F)cn2)cc(C)c1C1C(=O)CC(CC(=O)NC2CCCC2)C1=O` (stereo not shown) [Compound B114], the pest or weed control at 250 g/ha in experiment [1] (setting [11]) was determined as 90%; in experiment [1] (setting [12]), 90%; with Lolium perenne (LOLPE) (setting [13]), 90%; in the experiment with Lolium perenne (LOLPE) (setting [14]), 90%; in the experiment on Avena fatua (AVEFA) (setting [15]), 90%; in the experiment on Avena fatua (AVEFA) (setting [16]), 60%. Further, the pest or weed control at 250 g/ha in experiment [2] (setting [17]) and in experiment [2] (setting [18]) was 100% each time.

Turning to `C=CCNC(=O)CC1CC(=O)C(c2c(C)cc(Br)cc2C)C1=O` (stereo not shown) [Compound B117], the pest or weed control at 250 g/ha in experiment [1] (setting [11]) amounted to 80%; in experiment [1] (setting [12]), 70%; with Lolium perenne (LOLPE) (setting [13]), 70%; in the experiment with Lolium perenne (LOLPE) (setting [14]) it was 70%; in the experiment with Avena fatua (AVEFA) (setting [15]) it was 70%; in the experiment on Avena fatua (AVEFA) (setting [16]) it was 20%. For the same compound, the pest or weed control at 250 g/ha in experiment [2] (setting [17]) and in experiment [2] (setting [18]) was 70% in each case.

In the case of `C=CCCNC(=O)CC1CC(=O)C(c2c(C)cc(C#CC)cc2C)C1=O` (stereo not shown) [Compound A57], the pest or weed control at 250 g/ha in experiment [1] (setting [19]) was 100%; in experiment [1] (setting [20]), 100%; in the experiment with Lolium perenne (LOLPE) (setting [21]), 100%; with Lolium perenne (LOLPE) (setting [22]), 100%; in the experiment with Avena fatua (AVEFA) (setting [23]), 100%; in the experiment with Avena fatua (AVEFA) (setting [24]), 90%. Besides, the pest or weed control at 250 g/ha in experiment [2] (setting [25]) and in experiment [2] (setting [26]) was 100% throughout.

For the compound `C#CCN(C)C(=O)CC1CC(=O)C(c2c(C)cc(-c3ncc(Cl)cn3)cc2C)C1=O` (stereo not shown) [Compound B349], the pest or weed control at 250 g/ha in experiment [1] (setting [3]) came to 100%; in experiment [1] (setting [4]), 100%; in the experiment on Lolium perenne (LOLPE) (setting [5]), 100%; with Lolium perenne (LOLPE) (setting [6]) it was 90%; in the experiment with Avena fatua (AVEFA) (setting [7]), 100%; with Avena fatua (AVEFA) (setting [8]) it was 90%. Moreover, the pest or weed control at 250 g/ha in experiment [2] (setting [9]) is 100%; in experiment [2] (setting [10]) it was 90%.
